Reference: patent publication US20230405071A1, “COMPOSITIONS AND METHODS USEFUL FOR MANAGEMENT OF BLOOD SUGAR” (SOLVEAT FUNCTIONAL NUTRITION SOLUTIONS LTD., priority 2020, published 2023)

What was measured:
L6 myotubes = test: Glucose uptake colorimetric assay (2-deoxy glucose) in differentiated L6 cells; format: cell-based; details: insulin challenge versus serum-free control (FIG. 2)
Experimental: The objective of the study was to evaluate the anti-diabetic action of herbal blends. The ability to enhance glucose consumption by skeletal muscle was evaluated in L6 myotubes model in comparison to various control groups, including two known traditional reference formulae.
Cell culturing, materials preparations and all treatments were performed under sterile conditions. The L6 Cells culture medium comprised A-MEM supplemented with 100 U/ml penicillin and 100 μg/ml streptomycin and 10% FBS, sterilely filtered. The L6 cells differentiation medium comprised α-MEM supplemented with 100 U/ml penicillin and 100 μg/ml streptomycin and 2% FBS, sterilely filtered. […]
Glucose uptake assay was performed using Glucose Uptake Colorimetric Assay Kit in the non-radioactive 2-deoxy glucose derivative, according to the manufacturers' instructions in KRBH buffer, on differentiated cells. Colorimetric data was quantified by the use of a standard curve. Glucose uptake in the control (naïve cells), vehicle (DDW), and insulin-treated cells was measured.
Glucose uptake assay was then performed for the two concentrations of tested items: at 50 μg/mL and at 5 μg/mL. […] It can be readily appreciated from the FIG. 3 that the composition of eight ingredients composition was equipotent to QWS and BHT (denoted as “c1” and c2”) at the concentration of 50 μg/mL. […]

[1] = human, in vivo
Experimental: Patient 1: a person, suffering from diabetic leg complications and a non-healing wound on the minimus, indicated for amputation. The patient was treated with the composition as in the example 5, TI.1-8HC, 3 grams per day, for 20 days. The treatment was supported with suitable acupuncture protocol, and topical antibiotic preparations.
Patient 2: a person, suffering from diabetes, a completer of the clinical trial similar to the described in the Example 3, proceeded with the open-label extension for further 3 months and achieved a 24% reduction in the fasting glucose levels. Thereafter the dose was increased to 1500 mg twice daily, and after one month a complete control over fasting glucose level has been achieved (below 140 mg/dL). Low-carbohydrate diets was prescribed to maintain the achievement. The patient presented a year after with fasting blood glucose of over 160; requested and was prescribed raw fan shi liu ye 10000 mg per day (as decoction—10 minutes boiling, chilling, and consumption). After 10 days the fasting blood glucose declined to between 120 and 130 mg/dL, but the patient suffered from fatigue and reverted to the experimental chocolate.
Patient 3: a person, presented during COVID-19 pandemics with fasting blood glucose of 150 mg/dL, HA1C of 7.4, with anxiety and uncontrolled eating. […]

Substance | glucose uptake by muscle cells (L6 myotubes) | tolerability of treatment over extended time [1]
insulin | significantly increased | –
Psidium guajava L. [fan shi liu ye] | – | could not be well tolerated
